According to article PMC9814232, “Structural insights into the potency and selectivity of covalent pan-FGFR inhibitors” (Communications Chemistry, 2022):

Legend:
[1] = test system: FGFR gatekeeper mutations; details: cited from earlier work
[2] = target: T1, YES (Homo sapiens, UniProt P07947); experiment: ADP-Glo kinase inhibition assay, YES; format: biochemical; details: for IC50: kinase activity, ADP-Glo, 10 μM ATP, n = 3
T1 construct: purchased Carna 08-175
Protocol: (§1) FGFRs, SRC and HCK were prepared as previously described[31]–[33]. […] The primers were synthesized by Tsingke Biotechnolog Co., Ltd., and the sequences were listed in Supplementary Table 2. Then plasmid was transfected into E. coli BL21 (DE3) cells and co-expressed with YOPH to get the non-phosphorylated proteins. Cells were grown in LB at 37 °C and induced for 16 h with 0.5 mM IPTG at 18 °C. Cells were harvested by centrifugation for next purification. All steps of purification were performed at 4 °C. Proteins were first purified by Ni-NTA affinity chromatography, and then 6×His tag was removed by PreScission or TEV protease. […] Anion exchange chromatography (Mono Q) and size exclusion chromatography (SEC) were exploited for further purification. The purified FGFRs proteins were stored in the buffer containing 20 mM tris-HCl pH 8.0, 150 mM NaCl, and 1 mM TCEP, while SRC and HCK proteins in the buffer containing 20 mM tris-HCl pH 8.0, 150 mM NaCl, 5% (v/v) glycerol, and 1 mM TCEP. The purified proteins were concentrated to about 5–15 mg/mL and stored at −80 °C for subsequent studies.
(§2) The ADP-Glo^TM Kinase Assay Kit (Part No #V9101) was purchased from Promega. The experiments were performed according to the manufacturer’s instructions. All kinase inhibition assays were performed with optimized kinase assay buffer consisting of 40 mM Tris-HCl (pH ranging from 7.5 to 8.0), 20 mM MgCl2, 20 mM NaCl, 0.1 mg/mL BSA, 1 mM TCEP, and 4% DMSO[34]. […] Second, 5×ATP plus poly (4:1 Glu, Tyr) peptides (abcam, Part No #ab204877) were added to start the kinase reactions. The final reaction consisted of 0.04 μM kinase, 50 μM Tyr4 peptide and 10 μM ATP in kinase buffer. Then the reactions were terminated by the addition of stop buffer ADP-Glo after half an hour of incubation. […] Finally, […] was measured on a multimode plate reader (Perkin-Elmer) after the addition of detection reagent for half an hour to one hour. IC50 values were determined using a three-parameter log [Inhibitor] versus response model in GraphPad Prism software.

[3] = target: T2, SRC (Gallus gallus, UniProt P00523); experiment: ADP-Glo kinase inhibition assay, SRC; format: biochemical, chicken; details: for IC50: kinase activity, ADP-Glo, 10 μM ATP, n = 3
T2 construct: chicken SRC (residues 251−533); 6×His (N, cleaved yes); made in house; host or cells: E. coli BL21 (DE3), co-expressed with YOPH
Protocol: as §1, §2

[4] = target: T3, FGFR4(V550L) (Homo sapiens, UniProt P22455, V550L); experiment: ADP-Glo kinase inhibition assay, FGFR4(V550L) gatekeeper mutant; format: biochemical; details: for IC50: kinase activity, ADP-Glo, 10 μM ATP, n = 3
T3 construct: FGFR4 (residues 445−753); 6×His (N, cleaved yes); made in house; host or cells: E. coli BL21 (DE3), co-expressed with YOPH

[5] = target: T4, FGFR1(V561M) (Homo sapiens, UniProt P11362, V561M); experiment: ADP-Glo kinase inhibition assay, FGFR1(V561M) gatekeeper mutant; format: biochemical; details: kinase activity, 10 μM ATP, n = 3
T4 construct: human FGFR1 (residues 456−765); 6×His (N, cleaved yes); made in house; host or cells: E. coli BL21 (DE3), co-expressed with YOPH

[6] = target: T2, SRC; experiment: MALDI-TOF MS covalent adduct formation, SRC; format: binding, chicken; details: protein:inhibitor 1:2, overnight, 4 °C
Protocol: as §1

[7] = target: T5, FGFR4 (Homo sapiens, UniProt P22455); experiment: ADP-Glo kinase inhibition assay, FGFR4; format: biochemical; details: kinase activity, 10 μM ATP, n = 3
T5 construct: FGFR4 (residues 445−753); 6×His (N, cleaved yes); made in house; host or cells: E. coli BL21 (DE3), co-expressed with YOPH
Protocol: as §1, with “The purified proteins were concentrated to about 5–15 mg/mL and stored at −80 °C for subsequent studies.” left out
(§3) The ADP-Glo^TM Kinase Assay Kit (Part No #V9101) was purchased from Promega. […] Finally, […] was measured on a multimode plate reader (Perkin-Elmer) after the addition of detection reagent for half an hour to one hour. IC50 values were determined using a three-parameter log [Inhibitor] versus response model in GraphPad Prism software.

[8] = target: T6, FGFR2(V564F) (Homo sapiens, UniProt P21802, V564F); experiment: ADP-Glo kinase inhibition assay, FGFR2(V564F) gatekeeper mutant; format: biochemical
T6 construct: FGFR2 (residues 453−770); 6×His (N, cleaved yes); made in house; host or cells: E. coli BL21 (DE3), co-expressed with YOPH

[9] = target: T7, FGFR1 (Homo sapiens, UniProt P11362); experiment: ADP-Glo kinase inhibition assay, FGFR1; format: biochemical; details: kinase activity, 10 μM ATP, n = 3
T7 construct: human FGFR1 (residues 456−765); 6×His (N, cleaved yes); made in house; host or cells: E. coli BL21 (DE3), co-expressed with YOPH

[10] = target: T8, FGFR3(V555M) (Homo sapiens, UniProt P22607, V555M); experiment: ADP-Glo kinase inhibition assay, FGFR3(V555M) gatekeeper mutant; format: biochemical
T8 construct: FGFR3 (residues 450−758); 6×His (N, cleaved yes); made in house; host or cells: E. coli BL21 (DE3), co-expressed with YOPH

[11] = target: T9, FGFR2 (Homo sapiens, UniProt P21802); experiment: ADP-Glo kinase inhibition assay, FGFR2; format: biochemical; details: kinase activity, 10 μM ATP, n = 3
T9 construct: FGFR2 (residues 453−770); 6×His (N, cleaved yes); made in house; host or cells: E. coli BL21 (DE3), co-expressed with YOPH

[12] = target: T10, SRC(C277A) (Gallus gallus, UniProt P00523, C277A); experiment: ADP-Glo kinase inhibition assay, SRC(C277A); format: biochemical, chicken; details: for IC50: kinase activity, ADP-Glo, 10 μM ATP, n = 3
T10 construct: chicken SRC (residues 251−533); made in house; host or cells: E. coli BL21 (DE3), co-expressed with YOPH
Protocol: as §1, §2

[13] = target: T11, FGFR3 (Homo sapiens, UniProt P22607); experiment: ADP-Glo kinase inhibition assay, FGFR3; format: biochemical; details: kinase activity, 10 μM ATP, n = 3
T11 construct: FGFR3 (residues 450−758); 6×His (N, cleaved yes); made in house; host or cells: E. coli BL21 (DE3), co-expressed with YOPH
Protocol: as §1, with “The purified proteins were concentrated to about 5–15 mg/mL and stored at −80 °C for subsequent studies.” left out
as §3

[14] = target: T12, HCK (Homo sapiens, UniProt P08631); experiment: ADP-Glo kinase inhibition assay, HCK; format: biochemical; details: kinase activity, 10 μM ATP, n = 3
T12 construct: human HCK (residues 247−526); 6×His (N, cleaved yes); made in house; host or cells: E. coli BL21 (DE3), co-expressed with YOPH
Protocol: as §1, with “The purified proteins were concentrated to about 5–15 mg/mL and stored at −80 °C for subsequent studies.” left out
as §3

[15] = test system: advanced solid tumors; details: pretreated patients with advanced solid tumors, phase 1 dose-escalation; cited from earlier work
[16] = kinase activity, ADP-Glo, 10 μM ATP, n = 3

T1 sequence (P07947 whole entry): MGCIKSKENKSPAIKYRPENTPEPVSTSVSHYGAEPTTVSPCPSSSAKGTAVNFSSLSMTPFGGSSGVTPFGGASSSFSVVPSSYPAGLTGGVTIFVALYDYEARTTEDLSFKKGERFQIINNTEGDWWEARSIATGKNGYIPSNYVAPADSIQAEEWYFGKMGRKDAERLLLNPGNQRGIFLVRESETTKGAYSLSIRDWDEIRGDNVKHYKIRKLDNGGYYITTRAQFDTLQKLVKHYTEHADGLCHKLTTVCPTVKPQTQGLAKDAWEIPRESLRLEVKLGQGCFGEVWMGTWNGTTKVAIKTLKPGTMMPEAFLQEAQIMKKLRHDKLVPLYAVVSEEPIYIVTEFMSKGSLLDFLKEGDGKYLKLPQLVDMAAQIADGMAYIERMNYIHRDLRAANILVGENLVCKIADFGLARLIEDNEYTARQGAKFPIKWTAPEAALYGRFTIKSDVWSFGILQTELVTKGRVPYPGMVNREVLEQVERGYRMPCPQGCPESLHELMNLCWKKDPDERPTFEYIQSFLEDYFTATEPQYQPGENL
T3 sequence (P22455 445-753 V550L): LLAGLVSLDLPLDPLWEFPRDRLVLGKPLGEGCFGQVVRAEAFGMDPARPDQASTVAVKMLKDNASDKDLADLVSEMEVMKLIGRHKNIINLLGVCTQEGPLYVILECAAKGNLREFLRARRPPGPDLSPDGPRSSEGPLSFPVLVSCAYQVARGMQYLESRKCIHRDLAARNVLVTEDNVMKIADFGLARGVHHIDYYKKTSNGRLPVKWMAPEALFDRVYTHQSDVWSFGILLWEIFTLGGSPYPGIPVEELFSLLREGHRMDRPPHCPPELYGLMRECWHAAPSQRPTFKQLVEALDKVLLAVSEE
T5 sequence (P22455 445-753): as the sequence (P22455 445-753 V550L) above, with L106V counted along it
T12 sequence (P08631 247-526): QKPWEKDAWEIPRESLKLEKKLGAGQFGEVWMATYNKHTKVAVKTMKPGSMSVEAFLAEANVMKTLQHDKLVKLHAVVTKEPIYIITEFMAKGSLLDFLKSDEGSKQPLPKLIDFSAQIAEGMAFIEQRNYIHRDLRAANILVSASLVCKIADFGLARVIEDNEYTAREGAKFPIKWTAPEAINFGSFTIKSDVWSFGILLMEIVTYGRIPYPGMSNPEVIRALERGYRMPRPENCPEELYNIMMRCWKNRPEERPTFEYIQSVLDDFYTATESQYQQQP
T6 sequence (P21802 453-770 V564F): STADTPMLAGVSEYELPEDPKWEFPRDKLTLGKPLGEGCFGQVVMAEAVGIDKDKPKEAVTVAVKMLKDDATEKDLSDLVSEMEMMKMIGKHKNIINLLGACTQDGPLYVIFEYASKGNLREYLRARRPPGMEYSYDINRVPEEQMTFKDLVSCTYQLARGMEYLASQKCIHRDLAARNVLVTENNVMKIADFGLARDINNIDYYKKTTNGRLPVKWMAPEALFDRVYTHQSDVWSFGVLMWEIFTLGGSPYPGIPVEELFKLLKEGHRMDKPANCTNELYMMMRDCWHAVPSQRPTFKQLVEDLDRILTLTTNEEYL
T8 sequence (P22607 450-758 V555M): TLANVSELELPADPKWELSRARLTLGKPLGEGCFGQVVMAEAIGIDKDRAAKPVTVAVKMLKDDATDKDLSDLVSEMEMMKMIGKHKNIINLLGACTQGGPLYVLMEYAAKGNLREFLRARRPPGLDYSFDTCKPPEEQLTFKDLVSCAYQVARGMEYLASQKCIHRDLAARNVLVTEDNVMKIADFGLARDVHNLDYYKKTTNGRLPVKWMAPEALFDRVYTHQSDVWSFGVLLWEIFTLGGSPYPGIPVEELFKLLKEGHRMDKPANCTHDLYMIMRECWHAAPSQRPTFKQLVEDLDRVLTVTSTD
T11 sequence (P22607 450-758): as the sequence (P22607 450-758 V555M) above, with M106V counted along it
T7 sequence (P11362 456-765): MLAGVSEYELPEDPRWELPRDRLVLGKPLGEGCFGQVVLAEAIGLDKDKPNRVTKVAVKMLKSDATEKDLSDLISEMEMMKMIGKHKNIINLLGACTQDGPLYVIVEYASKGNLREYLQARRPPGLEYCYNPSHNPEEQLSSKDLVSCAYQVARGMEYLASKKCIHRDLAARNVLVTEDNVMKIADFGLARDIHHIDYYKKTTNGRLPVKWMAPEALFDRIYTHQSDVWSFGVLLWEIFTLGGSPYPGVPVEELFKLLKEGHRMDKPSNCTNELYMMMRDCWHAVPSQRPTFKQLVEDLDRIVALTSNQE
T4 sequence (P11362 456-765 V561M): as the sequence (P11362 456-765) above, with V106M counted along it
T9 sequence (P21802 453-770): as the sequence (P21802 453-770 V564F) above, with F112V counted along it

## CCN1CCN(c2ccc(Nc3cc(N(C)C(=O)Nc4c(Cl)c(OC)cc(OC)c4Cl)ncn3)cc2)CC1 [BGJ398, 3-(2,6-dichloro-3,5-dimethoxy-phenyl)-1-{6-[4-(4-ethyl-piperazin-1-yl)-phenylamino]-pyrimidin-4-yl}-1-methyl-urea]
[1]
  potency against FGFR gatekeeper mutations (in words): little potency

## C=CC(=O)Nc1ccc(CN2C(=O)N(c3cc(OC)cc(OC)c3)Cc3cnc(Nc4ccc(N5CCN(C)CC5)cc4)nc32)cc1 [FIIN-2]
[2]
  IC50: 365 nM
[3]
  IC50: 330 nM
[4]; IC50 mutant relative to wild-type FGFR4
  fold decrease in potency, FGFR4(V550L) vs wild type: 12 fold
[4]
  IC50: 255 nM
[5]
  IC50: 216 nM
[6]
  mass shift of SRC protein (covalent adduct): mass shifts were observed
[7]
  IC50: 21.1 nM
[8]; IC50 mutant relative to wild-type FGFR2
  fold decrease in potency, FGFR2(V564F) vs wild type: 95 fold
[8]; [16]
  IC50: 276 nM
[9]
  IC50: 6.4 nM
[10]; IC50 mutant relative to wild-type FGFR3
  fold reduction of potency, FGFR3(V555M) vs wild type: 15 fold
[10]; [16]
  IC50: 97 nM
[11]
  IC50: 2.9 nM
[12]
  IC50: > 5000 nM
[12]; kinase assay
  potency against SRC(C277A) (in words): lost their potency
[13]
  IC50: 6.7 nM
[14]
  IC50: > 5000 nM

## C=CC(=O)N1CCN(CCCn2c(=O)c(-c3c(Cl)c(OC)cc(OC)c3Cl)cc3cnc(NC)nc32)CC1 [PRN1371, 8-(3-(4-Acryloylpiperazin-1-yl)propyl)-6-(2,6-dichloro-3,5-dimethoxyphenyl)-2-(methylamino)pyrido[2,3-d]pyrimidin-7(8H)-one]
[2]
  IC50: > 5000 nM
[2]; kinase assay
  potency against YES (in words): negligible potency
[3]
  IC50: > 5000 nM
[3]; kinase assay
  potency against SRC (in words): negligible potency
[4]
  IC50: > 1000 nM
[4]; kinase assay
  effect on FGFR4(V550L) (in words): little effect
[7]
  IC50: 31.3 nM
[1]
  potency against FGFR gatekeeper mutations (in words): little potency
[12]
  IC50: > 5000 nM
[14]
  IC50: > 5000 nM

## C=CC(=O)N1CC[C@H](n2nc(C#Cc3cc(OC)cc(OC)c3)c3c(N)ncnc32)C1 [TAS-120]
[15]
  most common adverse events: hyperphosphatemia, diarrhea and constipation
